# Experimental data taken from patent US12503453B2, “USP7 inhibition” (Dana-Farber Cancer Institute, Inc., priority 2018, dated 2025).
# Key:
# [1] = system: p53 target genes in MCF7 cells; experiment: Quantitative real-time PCR of MCF7 cells; format: cell-based; details: 1 μM, 6 or 24 hours
# Procedure: After cell treatment under the indicated conditions, total cellular RNA was purified using a Qiagen RNEasy kit. 1 μg of RNA was then converted to cDNA using SuperScript III First-Strand Synthesis (Invitrogen). cDNA from each sample was then combined with the indicated TaqMan probe and 2× MasterMix in a 96-well Fast RT-PCR plate (Invitrogen). qPCR was performed on an Invitrogen 7500 Fast qPCR instrument and gene expression was calculated using the 2^−ΔΔct method on Graphpad Prism.
# [2] = system: TC32 cells expressing sgTP53; experiment: Cell proliferation of TC32 cells with TP53 knockout; format: cell-based; details: 3 days
# Procedure: (§1) Cells were plated in 384-well culture-treated plates and allowed to settle overnight. After drug treatment and appropriate incubation time, cell viability was assessed using the CellTiter-Glo Luminescent Cell Viability Assay (Promega). Luminescence was read on a Fluostar Omega Reader (BMG Labtech).
# Lentivirus was produced by transfecting HEK-293T cells with the pLentiV2 vector (Addgene plasmid #52961) and the packaging plasmids pCMV8.9 and pCMV-VSVG according to the FuGENE 6 (Roche) protocol. For lentiviral transduction, Ewing sarcoma cells were incubated with 2 mL of virus and 8 μg/mL of polybrene (Sigma-Aldrich). Cells were selected in puromycin (Sigma-Aldrich) 48 hours after infection for single knockout experiments.
# sgRNAs were designed using the Broad Institute's sgRNA designer tool. The following sequences were used as control or to target the respective genes: […]
# [3] = molecular target: full length USP7 (Homo sapiens (Human), UniProt Q93009); experiment: Ub-AMC enzymatic assay with full-length USP7; format: biochemical; details: full-length USP7, Ub-AMC
# Chain of full length USP7 (Q93009 whole entry): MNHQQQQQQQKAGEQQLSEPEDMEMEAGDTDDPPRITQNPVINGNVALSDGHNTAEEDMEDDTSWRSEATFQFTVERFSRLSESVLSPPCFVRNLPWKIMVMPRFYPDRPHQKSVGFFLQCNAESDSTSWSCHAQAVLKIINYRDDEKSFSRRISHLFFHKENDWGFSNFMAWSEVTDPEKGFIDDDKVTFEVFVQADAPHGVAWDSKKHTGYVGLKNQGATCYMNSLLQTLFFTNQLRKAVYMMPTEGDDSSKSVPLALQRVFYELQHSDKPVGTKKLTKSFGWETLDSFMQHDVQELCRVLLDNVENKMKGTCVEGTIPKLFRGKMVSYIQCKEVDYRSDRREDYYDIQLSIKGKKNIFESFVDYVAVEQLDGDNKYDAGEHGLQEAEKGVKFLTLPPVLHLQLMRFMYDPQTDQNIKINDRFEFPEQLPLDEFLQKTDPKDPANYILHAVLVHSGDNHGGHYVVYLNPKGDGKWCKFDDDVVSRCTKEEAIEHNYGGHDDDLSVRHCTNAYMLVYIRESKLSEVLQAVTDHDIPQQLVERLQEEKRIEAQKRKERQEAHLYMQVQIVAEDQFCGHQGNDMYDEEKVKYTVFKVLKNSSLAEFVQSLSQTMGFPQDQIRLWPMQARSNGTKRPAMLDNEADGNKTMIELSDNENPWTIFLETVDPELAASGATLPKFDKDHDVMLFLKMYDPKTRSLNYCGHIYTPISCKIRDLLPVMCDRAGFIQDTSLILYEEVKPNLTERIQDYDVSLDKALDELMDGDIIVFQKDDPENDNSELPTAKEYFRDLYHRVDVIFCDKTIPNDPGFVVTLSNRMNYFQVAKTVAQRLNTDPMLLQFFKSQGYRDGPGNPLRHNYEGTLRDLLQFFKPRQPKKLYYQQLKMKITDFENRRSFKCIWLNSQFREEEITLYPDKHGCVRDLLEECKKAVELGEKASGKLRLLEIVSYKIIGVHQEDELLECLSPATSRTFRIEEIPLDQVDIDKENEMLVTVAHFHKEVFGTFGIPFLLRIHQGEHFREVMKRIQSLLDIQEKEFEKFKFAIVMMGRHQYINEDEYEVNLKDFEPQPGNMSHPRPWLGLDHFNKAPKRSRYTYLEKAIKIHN
# Procedure: Both constructs were overexpressed in E. coli BL21 (DE3). Cells were grown at 37° C. to an OD of 0.9, cooled to 16° C., induced with 500 μM isopropyl-1-thio-D-galactopyranoside (IPTG), incubated overnight at 16° C., collected by centrifugation, and stored at −80° C. Cell pellets were sonicated in lysis buffer (25 mM Tris pH 8, 1 M NaCl, and 10 mM BME) supplemented with 10 μg/ml phenylmethanesulfonylfluoride (PMSF) and the resulting lysate was centrifuged at 30,000×g for 40 min. Ni-NTA beads (Qiagen) were mixed with lysate supernatant for 2 hours, and washed with lysis buffer supplemented with 25 mM imidazole. The bound protein was eluted with lysis buffer supplemented with 300 mM imidazole. The sample was then concentrated to 1 ml (30 kDa concentrator; Amicon Ultra, Millipore), and run on a Superdex 200 (GE healthcare) in buffer containing 25 mM HEPES pH 7.5, 200 mM NaCl, and 1 mM DTT. Fractions were pooled, concentrated and frozen at −80° C.
# Full length USP7 was tested for its activity in Ubiquitin-AMC assay in presence or absence of inhibitors. USP7 (5 nM) was pre-incubated for 6 hours at room temperature with different concentrations of inhibitors or DMSO as a control in 50 mM HEPES pH 7.5, 0.5 mM EDTA, 11 μM ovalbumin, and 5 mM DTT. Ubiquitin-AMC (Boston Biochem) was then added to a final concentration of 500 nM. The initial rate of the reaction was measured by collecting fluorescence data at one minute intervals over 30-minute period using a Clariostar fluorescence plate reader at excitation and emission wavelength of 345 and 445 nm respectively. The calculated initial rate values were plotted against inhibitor concentrations to determine IC50s. All the experimental data were plotted using Prism GraphPad. All assays for each compound were performed at least twice for each compound.
# [4] = molecular target: USP7 catalytic domain (Homo sapiens (Human), UniProt Q93009); experiment: MS labeling of purified USP7 catalytic domain (intact MS, CE-MS); format: binding
# Chain of USP7 catalytic domain (Q93009 208-560): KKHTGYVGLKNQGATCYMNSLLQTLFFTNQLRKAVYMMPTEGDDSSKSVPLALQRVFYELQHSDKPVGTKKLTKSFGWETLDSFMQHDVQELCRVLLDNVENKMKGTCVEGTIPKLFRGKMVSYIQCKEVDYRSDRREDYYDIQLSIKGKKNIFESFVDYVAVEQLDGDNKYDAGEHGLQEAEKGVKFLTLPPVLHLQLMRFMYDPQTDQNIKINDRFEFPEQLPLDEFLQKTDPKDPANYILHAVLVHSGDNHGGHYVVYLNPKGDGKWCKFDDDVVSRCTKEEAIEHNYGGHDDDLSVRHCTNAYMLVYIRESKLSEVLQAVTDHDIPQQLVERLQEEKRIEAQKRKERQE
# Procedure: Purified USP7 catalytic domain was diluted to 20 μM in 10 μL labeling buffer (20 mM HEPES pH 7.5, 150 mM NaCl, 1 mM TCEP) and incubated for the indicated times with 50 μM (2.5×) compound. After incubation, samples were flash frozen in liquid nitrogen and stored at −80° C. until analysis.
# Intact mass analysis was performed by injecting 5 μg USP7 catalytic domain onto a self-packed reversed phase column ( 1/32″ O.D.×500 um I.D., 5 cm of POROS 10R2 resin). After desalting, protein was eluted with an HPLC gradient (0-100% B in 4 minutes, A=0.2M acetic acid in water, B=0.2 M acetic acid in acetonitrile, flow rate ˜30 μL/min) into an LTQ ion trap mass spectrometer (ThermoFisher Scientific, San Jose, CA). Mass spectra were deconvoluted using MagTran1.03b2 software. Zhang, Z. & Marshall, A. G. A universal algorithm for fast and automated charge state deconvolution of electrospray mass-to-charge ratio spectra. J. Am. Soc. Mass Spectrom. 9, 225-233 (1998).
# To identify sites of covalent modification, treated protein was reduced (10 mM dithiothreitol), alkylated (22.5 mM iodoacetamide), and digested with trypsin overnight at 37° C. Peptides were desalted using SP3 (Hughes, C. S. et al. Ultrasensitive proteome analysis using paramagnetic bead technology. Mol. Syst. Biol. 10, 757-757 (2014)), dried by vacuum centrifugation, and reconstituted in 1% formic acid/50% acetonitrile with 100 mM ammonium acetate. Peptides were then analyzed by CE-MS using a ZipChip CE system and autosampler (908 Devices, Boston, MA) interfaced to a QExactive HF mass spectrometer (ThermoFisher Scientific, San Jose, CA). Peptide solution was loaded for 30 seconds, and the mass spectrometer was operated in data dependent mode and subjected the 5 most abundant ions in each MS scan (60 k resolution, 3E6 target, lock mass enabled) to MS/MS (15 k resolution, 1E5 target, 100 ms max inject time). Dynamic exclusion was enabled with a repeat count of 1 and an exclusion time of 6 seconds. […]
# [5] = system: TC138 cells; experiment: Cell proliferation (CellTiter-Glo), TC138; format: cell-based; details: TP53 wild-type, 3 days
# Procedure: as §1
# [6] = system: MDM2-p53 signaling axis in MCF7 cells; experiment: Whole cell lysate Western blots of MCF7 cells (MDM2-p53 signaling axis); format: cell-based; details: wild-type TP53
smiles,measurement,setting,value
"CN1CCN(CCC(=O)Nc2ccc3c(=O)n(CC4(O)CCN(C(=O)[C@@H](CCCNC(=O)c5ccc6c(Cl)c7c(nc6c5)CCCC7)Cc5ccccc5)CC4)cnc3c2)CC1 [compound 6, (S)—N-(4-benzyl-5-(4-hydroxy-4-((7-(3-(4-methylpiperazin-1-yl)propanamido)-4-oxoquinazolin-3(4H)-yl)methyl)piperidin-1-yl)-5-oxopentyl)-9-chloro-5,6,7,8-tetrahydroacridine-3-carboxamide]","transcription of p53 target genes (CDKN1A, GADD45A, BAX, DDB2)",[1],stimulating transcription of p53 target genes
same,cytotoxic effect after TP53 knockout,[2],rescued by TP53 knockout
same,IC50 against USP7 (range in words),[3],subnanomolar range
same,site of covalent modification (MS/MS),[4],"binding to the catalytic residue, C223"
same,labeling of USP7 catalytic domain by MS,[4]; 15 minutes incubation,Quantitative labeling of USP7
same,growth inhibition,[5],potently inhibited
same,MDM2 protein level,[6],induced rapid degradation of MDM2 within 2 hours
same,p53 and p21 protein levels,[6],increases in p53 and downstream p21 protein levels
